pIC50: −log10 of the molar value.
What was measured:
CYP2D6 = target: T1, CYP2D6 (Homo sapiens, UniProt P10635); test: Cocktail CYP assay, dextromethorphan O-demethylation; assay type: in vitro ADME; details: human liver microsomes, 5 μM dextromethorphan; test concentrations up to 10 μM
T1 construct: 0.1 mg/mL protein human liver microsomes (BD Gentest); tissue BD Gentest; host or cells: human liver microsomes
Experimental: (§1) Determination of IC50 in a Cocktail Assay for CYPs 1A2, 2C9, 2C19, 2D6 and 3A4
(§2) This assay was performed in a standard 96-well plate design. IC50 values were calculated from the percent inhibition observed for each test compound at 6 concentrations (for example, 0.0032, 0.016, 0.08, 0.4, 2 and 10 μM). The incubation substrate mix contains 10 μM phenacetin (1A2), 5 μM diclofenac (2C9), 30 μM mephenyloin (2C19), 5 μM dextromethorphan (2D6) and 2 μM midazolam (3A4), 0.1 mg/mL protein human liver microsomes (BD Gentest), 1 mM NAPDH, 3.3 mM MgCl2 and 100 mM potassium phosphate buffer (pH 7.4). The production of the metabolite of each probe substrate was determined after incubation for 10 min at 37° C. Quantitation of the metabolite peak area ratio against an internal standard (tolbutamide) was determined by LC/MS/MS analysis following acetonitrile treatment of the incubations.
(§3) Samples were analyzed in the MRM mode with a SCIEX API-4000 mass spectrometer (Applied Biosystems, Foster City, Calif.), with a Shimadzu LC-20 AD pump (Shimadzu corporation, Kyoto, JP) and a CTC PAL autosampler (Agilent Technologies, Switzerland). A Phenomenex, Luna, […], 100 A, 2.00×30 mm HPLC column was used for the separation. The mobile phases were: (A) 0.1% formic acid in water and (B) 0.1% formic acid in acetonitrile. The binary gradient was as follows.
(§4) The peak area ratio of the analyte to the internal standard was used to quantify the metabolite. The values of peak area ratios in the presence of test compound were compared to those of maximum or minimum controls and were expressed as % inhibition by interpolating between the maximum and minimum peak area ratios. Incubations with no inhibitor were defined as the maxima.
(§5) The following equation was used to calculate the % inhibition:
(§6) [1−[(X−Low control)/(High control−Low control)]]*100
(§7) For the IC50 calculation, SigmaPlot was used to plot the mean % inhibition versus the test compound concentrations and for non-linear regression analysis of the data. Depending on the range of data points defining the inhibition curve, the data may have been fit to the 4-parameter logistic equation.

CYP3A4 = CYP3A4 (Homo sapiens, UniProt P08684); test: IC50 vs CYP3A by inhibition of lopinavir metabolism in human liver microsomes; assay type: biochemical; details: pH 7.4, human liver microsomes, 1.5 μM lopinavir, 8 min at 37° C., test concentrations 0.098-100 nM, read-out: 3A4(LPV)
CYP3A4, sequence (P08684 2-503): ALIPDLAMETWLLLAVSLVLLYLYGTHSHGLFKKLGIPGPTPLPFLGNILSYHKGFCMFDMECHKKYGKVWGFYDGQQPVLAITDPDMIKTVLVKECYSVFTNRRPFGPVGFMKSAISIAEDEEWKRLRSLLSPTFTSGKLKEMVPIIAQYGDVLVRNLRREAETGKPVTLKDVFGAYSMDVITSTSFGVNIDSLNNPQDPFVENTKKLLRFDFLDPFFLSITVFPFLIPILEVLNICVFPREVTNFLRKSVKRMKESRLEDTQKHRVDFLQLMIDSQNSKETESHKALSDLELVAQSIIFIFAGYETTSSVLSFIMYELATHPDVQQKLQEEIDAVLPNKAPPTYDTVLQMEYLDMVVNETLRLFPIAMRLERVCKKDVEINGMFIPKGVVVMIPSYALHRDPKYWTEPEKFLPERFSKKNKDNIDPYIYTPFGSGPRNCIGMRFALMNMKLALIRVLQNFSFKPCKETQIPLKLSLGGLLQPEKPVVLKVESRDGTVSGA
Experimental: Determination of IC50 vs CYP3A by Measurement of Inhibition of Lopinavir Metabolism
This assay was performed in a standard 96-well plate design. IC50 values were calculated from the percent inhibition observed for each test compound at 6 concentrations (for example, 0.098, 0.391, 1.56, 6.25, 25 and 100 nM). The incubation substrate mix contains 1.5 μM lopinavir, 0.01 mg/mL protein human liver microsomes (BD Gentest), 1 mM NAPDH, 3.3 mM MgCl2 and 100 mM potassium phosphate buffer (pH 7.4). The production of the sum of three hydroxylated metabolites (M2: 6-hydroxy lopinavir, M3: 4-hydroxy lopinavir, M4: 4-hydroxy lopinavir (epimer of M3), Kumar et al., 1999) was determined after incubation for 8 min at 37° C. Quantitation of the metabolite peak area ratio against an internal standard (tolbutamide) was determined by LC/MS/MS analysis following acetonitrile treatment of the incubations.
Samples were analyzed in the MRM mode with a SCIEX API-4000 mass spectrometer (Applied Biosystems, Foster City, Calif.), with a Shimadzu LC-20 AD pump (Shimadzu corporation, Kyoto, JP) and a CTC PAL autosampler (Agilent Technologies, Switzerland). A Phenomenex, Luna, 5 μm, 100 A, 2.00×30 mm HPLC column was used for the separation. The mobile phases were: (A) 0.1% formic acid in water and (B) 0.1% formic acid in acetonitrile. The binary gradient was as follows.
The peak area ratio of the analyte to the internal standard was used to quantify the metabolite. The values of peak area ratios in the presence of test compound were compared to those of maximum or minimum controls and were expressed as % inhibition by interpolating between the maximum and minimum peak area ratios. Incubations with no inhibitor were defined as the maxima and with 5 μM ketoconazole were defined as the minima
as §5, §6, §7

CYP1A2 = target: T2, CYP1A2 (Homo sapiens, UniProt P05177); test: Cocktail CYP assay, phenacetin O-deethylation; assay type: in vitro ADME; details: human liver microsomes, 10 μM phenacetin; test concentrations up to 10 μM
T2 construct: 0.1 mg/mL protein human liver microsomes (BD Gentest); tissue BD Gentest; host or cells: human liver microsomes
T2 sequence (P05177 1-516): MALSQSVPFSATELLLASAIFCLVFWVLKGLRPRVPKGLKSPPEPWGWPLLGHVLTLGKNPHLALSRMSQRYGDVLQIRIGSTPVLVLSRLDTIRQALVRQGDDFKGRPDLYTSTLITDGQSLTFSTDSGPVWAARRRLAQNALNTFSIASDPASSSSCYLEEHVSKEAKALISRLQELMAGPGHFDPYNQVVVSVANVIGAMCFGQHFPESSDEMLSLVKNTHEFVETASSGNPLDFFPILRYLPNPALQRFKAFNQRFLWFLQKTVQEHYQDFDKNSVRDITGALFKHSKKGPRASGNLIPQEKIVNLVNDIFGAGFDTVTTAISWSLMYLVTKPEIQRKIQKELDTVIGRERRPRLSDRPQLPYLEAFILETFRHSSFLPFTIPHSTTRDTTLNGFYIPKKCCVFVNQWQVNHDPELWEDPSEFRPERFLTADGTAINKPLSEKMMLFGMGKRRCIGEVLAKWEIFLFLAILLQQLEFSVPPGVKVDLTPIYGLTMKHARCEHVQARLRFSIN
Experimental: as §1, §2, §3, §4, §5, §6, §7

CYP2C19 = target: T3, CYP2C19 (Homo sapiens, UniProt P33261); test: Cocktail CYP assay, mephenytoin 4'-hydroxylation; assay type: in vitro ADME; details: human liver microsomes, 30 μM mephenytoin; test concentrations up to 10 μM
T3 construct: 0.1 mg/mL protein human liver microsomes (BD Gentest); tissue BD Gentest; host or cells: human liver microsomes
T3 sequence (P33261 whole entry): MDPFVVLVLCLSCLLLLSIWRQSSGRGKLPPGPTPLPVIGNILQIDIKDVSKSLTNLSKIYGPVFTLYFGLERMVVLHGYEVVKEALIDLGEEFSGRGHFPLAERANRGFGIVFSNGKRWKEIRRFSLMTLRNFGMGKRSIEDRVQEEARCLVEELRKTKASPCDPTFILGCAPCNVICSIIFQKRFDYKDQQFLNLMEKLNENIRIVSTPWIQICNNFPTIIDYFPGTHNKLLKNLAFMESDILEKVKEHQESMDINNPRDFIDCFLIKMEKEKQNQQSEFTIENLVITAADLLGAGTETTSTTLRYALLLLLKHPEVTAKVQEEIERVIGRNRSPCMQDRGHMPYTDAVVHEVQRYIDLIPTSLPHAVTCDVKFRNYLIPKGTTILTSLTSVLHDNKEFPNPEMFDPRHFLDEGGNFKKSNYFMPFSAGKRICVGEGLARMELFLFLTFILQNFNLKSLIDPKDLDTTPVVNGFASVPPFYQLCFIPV
Experimental: as §1, §2, §3, §4, §5, §6, §7

T1 sequence (P10635 whole entry): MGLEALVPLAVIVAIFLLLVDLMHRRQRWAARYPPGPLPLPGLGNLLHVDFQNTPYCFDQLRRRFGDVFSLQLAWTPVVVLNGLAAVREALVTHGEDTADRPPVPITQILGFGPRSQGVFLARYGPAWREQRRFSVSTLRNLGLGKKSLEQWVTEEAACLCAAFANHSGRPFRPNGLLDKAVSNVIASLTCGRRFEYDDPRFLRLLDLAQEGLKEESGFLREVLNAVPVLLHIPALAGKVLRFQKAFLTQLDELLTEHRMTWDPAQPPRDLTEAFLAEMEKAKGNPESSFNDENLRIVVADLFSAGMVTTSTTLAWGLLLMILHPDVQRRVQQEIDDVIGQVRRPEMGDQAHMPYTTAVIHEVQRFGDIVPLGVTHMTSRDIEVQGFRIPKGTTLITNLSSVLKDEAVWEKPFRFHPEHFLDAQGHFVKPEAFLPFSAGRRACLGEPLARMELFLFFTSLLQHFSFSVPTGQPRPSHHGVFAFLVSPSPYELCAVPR

SMILES | pIC50 (CYP2D6) | IC50 at 8 min (CYP3A4) | pIC50 (CYP1A2) | pIC50 (CYP2C19)
C[C@H](c1ccc(F)cc1)n1cncc1CN1CCN(S(=O)(=O)c2cnc(N3CCN(C)CC3)s2)CC1 [Compound 2] | 5.10 | 0.001 µM | < 5.00 | 5.74
C[C@H](c1ccc(F)cc1)n1cncc1CN1CCN(S(=O)(=O)c2cnc(N3CCNCC3)cn2)CC1 [Compound 30] | 5.31 | 0.0036 µM | < 5.00 | < 5.00
Cc1ccc(C2(n3cncc3CN3CCN(S(=O)(=O)c4cnc(N5CCN(C)CC5)s4)CC3)CC2)nc1 [Compound 31] | < 5.00 | 0.0044 µM | < 5.00 | < 5.00
C[C@H](c1ccc(F)cc1)n1cncc1CN1CCN(S(=O)(=O)c2cnc(N3CCN4C[C@@H](CN)C[C@H]4C3)s2)CC1 [Compound 10] | < 5.00 | < 0.00098 µM | < 5.00 | < 5.00
C[C@H](c1ccc(F)cc1)n1cncc1CN1CCN(S(=O)(=O)c2ccc(N3CCNCC3)cn2)CC1 [Compound 28] | 5.19 | 0.0044 µM | < 5.00 | 5.43
C[C@H](c1ccc(F)cc1)n1cncc1CN1CCN(S(=O)(=O)c2cnc(N3CCN4C[C@H](O)C[C@H]4C3)s2)CC1 [Compound 5] | < 5.00 | 0.0038 µM | < 5.00 | 5.41
C[C@H](c1ccc(F)cc1)n1cncc1CN1CCN(S(=O)(=O)c2cnc(N3CCC4(CC3)CNC(=O)N4)s2)CC1 [Compound 3] | 5.57 | 0.0027 µM | < 5.00 | < 5.00
C[C@H](c1ccc(F)cc1)n1cncc1CN1CCN(S(=O)(=O)c2cnc(N3CC[C@@H](N4CCOCC4)[C@H](F)C3)s2)CC1 [Compound 20] | < 5.00 | 0.0041 µM | 5.56 | 5.39
C[C@H](c1ccc(F)cc1)n1cncc1CN1CCN(S(=O)(=O)c2cnc(N3CCC(S(C)(=O)=O)C3)s2)CC1 (stereo partly drawn) [Compound 8] | < 5.00 | 0.0018 µM | < 5.00 | < 5.00
C[C@H](c1ccc(F)cc1)n1cncc1CN1CCN(S(=O)(=O)c2cnc(N3CCC(N)(CO)CC3)s2)CC1 [Compound 25] | 5.08 | 0.0019 µM | < 5.00 | < 5.00
CC1CN(c2ncc(S(=O)(=O)N3CCN(Cc4cncn4[C@H](C)c4ccc(F)cc4)CC3)s2)C[C@@H]2C[C@@H](O)CN12 (stereo partly drawn) [Compound 23] | 5.33 | 0.0016 µM | < 5.00 | < 5.00
C[C@H](c1ccc(F)cc1)n1cncc1CN1CCN(S(=O)(=O)c2cnc(N3CCN4C(=O)OC[C@H]4C3)s2)CC1 [Compound 26] | < 5.00 | 0.0015 µM | < 5.00 | 5.14
C[C@H](c1ccc(F)cc1)n1cncc1CN1CCN(S(=O)(=O)c2cnc(N3CC(=O)N4C[C@H](O)C[C@H]4C3)s2)CC1 [Compound 16] | < 5.00 | 0.0052 µM | 5.83 | 5.09
CN1CCN(c2ncc(S(=O)(=O)N3CCN(Cc4cncn4CCOc4ccc(F)cn4)CC3)s2)CC1 [Compound 33] | 5.32 | 0.0023 µM | < 5.00 | 5.12
C[C@H](c1ccc(F)cc1)n1cncc1CN1CCN(S(=O)(=O)c2cnc(N3CCN4CCC(O)[C@H]4C3)s2)CC1 (stereo partly drawn) [Compound 27] | 5.41 | 0.0026 µM | < 5.00 | 5.19
C[C@H](c1ccc(C#N)cc1)n1cncc1CN1CCN(S(=O)(=O)c2cnc(Nc3ccc(C(F)(F)F)cn3)s2)CC1 [Compound 4] | 5.28 | < 0.0001 µM | < 5.00 | 6.14
C[C@H](c1ccc(F)cc1)n1cncc1CN1CCN(S(=O)(=O)c2cnc(N3CCN4C[C@H](O)C[C@@H]4C3)s2)CC1 [Compound 6] | < 5.00 | 0.0014 µM | < 5.00 | < 5.00
C[C@H](c1ccc(F)cc1)n1cncc1CN1CCN(S(=O)(=O)c2cnc(N3CC[C@@H](N)[C@H](F)C3)s2)CC1 [Compound 11] | < 5.00 | < 0.00098 µM | < 5.00 | 5.10
C[C@H](c1ccc(F)cc1)n1cncc1CN1CCN(S(=O)(=O)c2cnc(N3CCN4C[C@H](O)CC[C@H]4C3)s2)CC1 [Compound 19] | 5.15 | 0.0017 µM | < 5.00 | 5.10
CC(c1cncn1[C@H](C)c1ccc(F)cc1)N1CCN(S(=O)(=O)c2cnc(N3CCN4C[C@H](O)C[C@H]4C3)s2)CC1 (stereo partly drawn) [Compound 37] | < 5.00 | 0.0041 µM | 5.24 | < 5.00
CC1CN2C[C@H](O)C[C@H]2CN1c1ncc(S(=O)(=O)N2CCN(Cc3cncn3[C@H](C)c3ccc(F)cc3)CC2)s1 (single isomer, unassigned) [Compound 22] | 5.44 | 0.0013 µM | 5.06 | 5.64

Reference: patent US20140005103A1, “SULFONAMIDE DERIVATIVES AND METHODS OF USE THEREOF FOR IMPROVING THE PHARMACOKINETICS OF A DRUG” (Merck, Sharp & Dohme Corp., priority 2012, published 2014)
